Laboratory results published in patent US8815944B2, “Pharmaceutical composition with gelling properties containing a tyrosine derivative” (Ethypharm, priority 2008, dated 2014).
Where a name gives a salt, the structure may show the parent alone.

Assays:
Assay type in all cases: physicochemical
[1] = Differential scanning calorimetry (DSC) of organogels in safflower oil; conditions: organogelator 5% (w/w) in safflower oil; for H (enthalpy of the gel-solution transition): area of endothermic peak; for TGS (gel-solution transition temperature): maximum of endothermic peak
Experimental: (§1) Organogelators at a concentration of 5% (w/w) were solubilized in safflower oil at high temperature (>80° C.) and gels were obtained by cooling the mixture.
The gels were characterized by differential scanning calorimetry (DSC) to obtain gel-solution transition temperatures (TGS) and enthalpy values of the transition (ΔH). Briefly, thermograms of gels were collected on a 2910 TA Instruments DSC system (New Castle, Del.). The instrument was calibrated with indium. Gels were weighed into aluminum pans that were subsequently sealed. Temperature was scanned between 5 and 90° C. at 10° C./min. The reported gel-sol transition temperatures (TGS) and enthalpies (ΔH) corresponded to the maximum and the area of the endothermic peaks respectively.

[2] = Rheological analysis of the gels (gel hardness, complex modulus G*); conditions: organogelator 5% (w/w) in safflower oil; 25±0.1° C., 0.1 to 10 Hz
Experimental: as §1
Rheological analysis of the gels was performed to determine the gel hardness, by measuring the complex modulus G*. The rheological properties of the organogels were measured by an AR2000 (Advanced Rheometer 2000, TA Instruments, New Castle, Del.), with parallel plate geometry (diameter of 40 mm). Organogels were heated until reaching TGS and they were placed between the parallel plates. The final thickness of the material coat between the plates was 650 to 750 μm. The film was cooled at 4° C. to form the gel. In the linear regime of the gel, the complex modulus G* have been measured as a function of the angular frequency (0.1 to 10 Hz) at 25±0.1° C. G*=(G′^2+G″^2)^0.5 with G′ the storage modulus and G″ the loss modulus.

[3] = Stability after sterilization by γ-radiation, by 1H-NMR; conditions: γ-radiation at 25 kGy on dry ice, 60Co source
Experimental: All formulation components were sterilized individually. B-TyrOCH3 and rivastigmine hydrogen tartrate (Riv) were sterilized on dry ice by γ-radiation at 25 kGy using a ^60Co source (Nordion Inc., Laval, QC, Canada). Stability of the organogelator and drug after sterilization was confirmed by ^1H-NMR. The safflower oil and NMP were filtered on 0.2-μm polytetrafluoroethylene filters. Safflower oil, B-TyrOCH3 (5% w/w) and Rivastigmine were mixed at 85° C. until solubilisation of the organogelator. N-methylpyrrolidone (NMP) (3% w/w) was added at high temperature, mixed and gel formulation syringes (20 G needle) were prepared, under aseptic conditions and put on ice during 15 minutes and at room temperature before injection. A control formulation was prepared without the organogelator in the same condition (oil formulation).

CCCCCCCCCCCCCCCCCC(=O)N[C@@H](Cc1c[nH]c2ccccc12)C(=O)O [S-Trp-OH, N-stearoyl L-tryptophan]
H (enthalpy of the gel-solution transition) [1]: 3.82 kcal/mol
TGS (gel-solution transition temperature) [1]: 122 °C
G* (complex modulus, gel hardness) [2]: <0.1 kPa

CCCCCCCCCCCCCCCCCCCCCC(=O)N[C@@H](Cc1ccc(O)cc1)C(=O)OC [B-Tyr-OCH3, N-Behenoyl L-tyrosine methyl ester]
H (enthalpy of the gel-solution transition) [1]: 17 kcal/mol
TGS (gel-solution transition temperature) [1]: 74 °C
G* (complex modulus, gel hardness) [2]: 37.6 kPa

CCCCCCCCCCCCCCCCCC(=O)NC(C)C(=O)OC (stereo not shown) [S-Ala-OCH3]
H (enthalpy of the gel-solution transition) [1]: 13.1 kcal/mol
TGS (gel-solution transition temperature) [1]: 60 °C
G* (complex modulus, gel hardness) [2]: 5 kPa

CCCCCCCCCCCCCCCCCC(=O)N[C@@H](Cc1ccc(O)cc1)C(=O)OC [S-Tyr-OCH3, N-Stearoyl L-tyrosine methyl ester]
H (enthalpy of the gel-solution transition) [1]: 12 kcal/mol
TGS (gel-solution transition temperature) [1]: 65 °C
G* (complex modulus, gel hardness) [2]: 15.2 kPa

CCN(C)C(=O)Oc1cccc([C@H](C)N(C)C)c1 [rivastigmine hydrogen tartrate]
Stability after sterilization [3]: confirmed

CCCCCCCCCCCCCCCCCC(=O)N[C@@H](Cc1ccccc1)C(=O)OC [S-Phe-OCH3, N-stearoyl L-phenylalanine methyl ester]
H (enthalpy of the gel-solution transition) [1]: 9.08 kcal/mol
TGS (gel-solution transition temperature) [1]: 43 °C
G* (complex modulus, gel hardness) [2]: 6.1 kPa

CCCCCCCCCCCCCCCCCC(=O)N[C@@H](Cc1ccc(O)cc1)C(=O)O [S-Tyr-OH, N-stearoyl L-tyrosine]
H (enthalpy of the gel-solution transition) [1]: 4.3 kcal/mol
TGS (gel-solution transition temperature) [1]: 127 °C
G* (complex modulus, gel hardness) [2]: 5 kPa

CCCCCCCCCCCCCCCCCCCCCC(=O)N[C@@H](Cc1ccccc1)C(=O)OC [B-Phe-OCH3]
H (enthalpy of the gel-solution transition) [1]: 14.6 kcal/mol
TGS (gel-solution transition temperature) [1]: 53 °C
G* (complex modulus, gel hardness) [2]: 6 kPa

CCCCCCCCCCCCCCCCCC(=O)N[C@@H](Cc1c[nH]c2ccccc12)C(=O)OC [S-Trp-OCH3, N-stearoyl L-tryptophan methyl ester]
H (enthalpy of the gel-solution transition) [1]: 5.5 kcal/mol
TGS (gel-solution transition temperature) [1]: 56 °C
G* (complex modulus, gel hardness) [2]: <0.1 kPa
